Experimental data: patent publication US11932604B1, “9-(2-hydroxyphenyl)-10-[3-(dimethylamino)propyl]- 3,4,6,7,9,10-hexahydroacridine-1,8(2H,5H)-dione as an antimicrobial compound” (KING FAISAL UNIVERSITY, priority 2023, dated 2024)

Columns and labels:
Conditions in all cases: after 10, 20, 40 and 60 minutes at all dilutions 1:100 to 1:800
Candida albicans = experiment: Antimicrobial activity by agar dilution, Candida albicans; format: cell-based
Procedure: (§1) The antimicrobial properties of the synthesized compound 9-(2-hydroxyphenyl)-10-[3-(dimethylamino)propyl]-3,4,6,7,9,10-hexahydroacridine-1,8(2H,5H)-dione were studied by the method of agar dilution. Test solutions of each compound were prepared in a concentration of 1% using dimethylformamide as a solvent. Then they were diluted in a physiological solution to obtain the final experimental dilutions 1:100, 1:200, 1:400, and 1:800. The effect of these substances were compared with furacillin in a controllable study. The testing microbes used were gram positive bacteria St. Aereus, gram negative bacteria E. Coli and Ps. Aeruginosa, and Candida albicans fungi. The experiments used for this survey were meat-pentonlu agar (EPA) for cultivation of bacteria and Saburo environment for fungi. Each experiment used 1 ml of test solution on each plate 500 min. Add 2 drops of emulsified with microbes feel. All experimental samples were taken from the agar after 10, 20, 40, 60 minutes in the environment on the basis of Patrk planted. Bacteria were cultivated at a temperature of 37° C. for 1 day and the mushroom was kept in a thermostat for […] at a temperature of 28° C. Then the results were checked.

Ps. Aeruginosa = experiment: Antimicrobial activity by agar dilution, Ps. Aeruginosa; format: cell-based, Pseudomonas aeruginosa
Procedure: as §1

E. Coli = experiment: Antimicrobial activity by agar dilution, E. Coli; format: cell-based, Escherichia coli
Procedure: as §1

St. Aereus = experiment: Antimicrobial activity by agar dilution, St. Aereus; format: cell-based, Staphylococcus aureus
Procedure: as §1

CN(C)CCCN1C2=C(C(=O)CCC2)C(c2ccccc2O)C2=C1CCCC2=O [9-(2-hydroxyphenyl)-10-[3-(dimethylamino)propyl]-3,4,6,7,9,10-hexahydroacridine-1,8(2H,5H)-dione]
highest inhibition activity: inhibition activity, Candida albicans (Candida albicans) | inhibition activity, Ps. Aeruginosa (Ps. Aeruginosa) | inhibition activity, E. Coli (E. Coli) | inhibition activity, St. Aereus (St. Aereus)
